Experimental data as given in patent EP0677039B1, “CYCLOBUTANE DERIVATIVES AS INHIBITORS OF […] SYNTHETASE AND PROTEIN […]” (Abbott Laboratories, priority 1993, dated 1995).

What follows are molecules tested on Cholesterol Synthesis (assay: In vivo inhibition of cholesterol synthesis). Settings: Cynomolgus monkeys, 2 males and 2 females per group, 20 mg/kg, po, daily for a total of 5 days; average.
Method: Monkeys, Cynomolgus, 2 males and 2 females per group, Controls: 3.7-6.1 Kg body weight, Dosed animals: 4.8-5.6 Kg body weight) were fasted overnight and bled in the morning. Plasma samples were prepared and analyzed for total cholesterol, HDL-cholesterol and triglycerides. […] Dosing was continued daily for a total of 5 days. Prior to the last dose the animals were fasted overnight and bled after dosing but before feeding. Plasma samples (anticoagulated with EDTA) were prepared and analyzed as before. One-sample t-tests were calculated to test for significant change within a group across the experiment.
For `CCCN(Cc1ccc(Oc2ccccc2)cc1)C(=O)[C@H]1[C@@H](C(=O)O)[C@H](C(=O)O)[C@@H]1C(=O)N(CCC)Cc1ccc(Oc2ccccc2)cc1` (racemic) [Example 17, (1α,2β,3β,4α)-1,2-Di[N-propyl-N-(4-phenoxybenzyl)aminocarbonyl]cyclobutane-3,4-dicarboxylic acid], the “Total plasma cholesterol was lowered” value was 15.5%.

Each molecule was assayed against T1, Rat liver microsomal squalene synthetase (Rattus norvegicus, UniProt Q02769) (assay: In vitro inhibition of squalene synthetase). Settings: 10 µM test compound; rat liver microsomes, labelled farnesyl pyrophosphate, 10 minutes at 37 °C; compared to controls with no test compound.
T1 construct: Rat liver microsome, the source of enzyme; from tissue; host or cells: rat liver microsomes
T1 sequence (Q02769 1-416): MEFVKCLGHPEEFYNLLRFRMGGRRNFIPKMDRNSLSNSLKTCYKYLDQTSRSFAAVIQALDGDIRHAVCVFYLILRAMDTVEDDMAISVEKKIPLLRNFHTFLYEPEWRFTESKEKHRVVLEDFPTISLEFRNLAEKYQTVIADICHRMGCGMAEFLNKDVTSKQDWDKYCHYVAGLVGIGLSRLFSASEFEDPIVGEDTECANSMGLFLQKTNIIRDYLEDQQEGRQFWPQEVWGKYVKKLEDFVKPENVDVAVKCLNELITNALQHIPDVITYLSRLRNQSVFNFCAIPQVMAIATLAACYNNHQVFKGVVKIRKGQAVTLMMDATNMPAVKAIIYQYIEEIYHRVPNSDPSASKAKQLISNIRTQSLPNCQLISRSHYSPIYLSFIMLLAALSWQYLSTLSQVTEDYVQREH
Type: biochemical
In short: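 Rat liver microsomes converted labelled farnesyl pyrophosphate to squalene under nitrogen. Ethanolic KOH stopped the reaction, and squalene was extracted into hexane and separated on alumina before counting. Percent inhibition was taken at 10 µM (or 1 µM) versus compound-free controls.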
Molecule `CCCN(Cc1ccc(Oc2cccc3ccccc23)cc1)C(=O)C1C(C(=O)O)C(C(=O)O)C1C(=O)N(CCC)Cc1ccc(Oc2cccc3ccccc23)cc1` (stereo not drawn) [Example 91, (1α,2β,3β,4α)-1,2-Di[N-propyl-N-(4-naphth-1-yloxybenzyl)aminocarbonyl]cyclobutane-3,4-dicarboxylic acid] has an inhibition at 10 µM of 62%.
Work on `CCCN(Cc1ccc(Oc2ccccc2)cc1)C(=O)C1C(C(=O)O)C(C(=O)NCC(=O)O)C1C(=O)N(CCC)Cc1ccc(Oc2ccccc2)cc1` (stereo not drawn) [Example 106, (1α,2β,3β,4α)-1,2-Di[N-propyl-N-(4-phenoxybenzyl)aminocarbonyl]cyclobutane-3-4-dicarboxylic acid mono-Glycine amide] yielded an inhibition at 10 µM of 92%.
`CCCN(Cc1ccc(C(=O)c2ccccc2)cc1)C(=O)C1C(C(=O)O)C(C(=O)O)C1C(=O)N(CCC)Cc1ccc(C(=O)c2ccccc2)cc1` (stereo not drawn) [Example 118B, (1α,2β,3β,4α)-1,2-Di[N-propyl-N-(4-benzoylbenzyl)aminocarbonyl]cyclobutane-3,4-carboxylic acid] was tested, and the inhibition at 10 µM was 51%.
In the case of `CN(Cc1ccc(Oc2ccccc2)cc1)C(=O)NC1C(NC(=O)N(C)Cc2ccc(Oc3ccccc3)cc2)C(C(=O)O)C1C(=O)O` (stereo not drawn) [Example 120, (1α,2β,3β,4α)-1,2-Di[N-methyl-N-(4-phenoxybenzyl)aminocarbonylamino]cyclobutane-3,4-dicarboxylic acid], the inhibition at 10 µM was 54%.
`O=C(O)C1C(C(=O)O)C(C(=O)N(Cc2ccccc2)Cc2ccccc2)C1C(=O)N(Cc1ccccc1)Cc1ccccc1` (stereo not drawn) [Example 121, (1α,2β,3β,4α)-1,2-Di[N,N-dibenzylaminocarbonyl]cyclobutane-3,4-dicarboxylic acid] showed an inhibition at 10 µM of 44%.
With `O=C(O)C1C(C(=O)O)C(C(=O)N(Cc2ccccc2)Cc2ccc(Cl)cc2)C1C(=O)N(Cc1ccccc1)Cc1ccc(Cl)cc1` (stereo not drawn) [Example 122B, (1α,2β,3β,4α)-1,2-Di[N-benzyl-N-(4-chlorobenzyl)aminocarbonyl]cyclobutane-3,4-dicarboxylic acid] the inhibition at 10 µM was 57%.
In the case of “(1α,2β,3β,4α)-1,2-Di[N-propyl-N-(4-phenoxybenzyl)aminocarbonyl]-3,4-di[(hydroxyimino)methyl]-cyclobutane [Example 79B]”, the “% Inhibition at 10 µM” value was 83%.

Same assay, conditions: values marked * in Table 1: 1 µM test compound; rat liver microsomes, labelled farnesyl pyrophosphate, 10 minutes at 37 °C
Work on `CCCN(Cc1ccc(Oc2ccccc2)cc1)C(=O)C1C(C(=O)O)C(C(=O)Nc2nnn[nH]2)C1C(=O)N(CCC)Cc1ccc(Oc2ccccc2)cc1` (stereo not drawn) [Example 92B, (1α,2β,3β,4a)-1,2-Di[N-propyl-N-(4-phenoxybenzyl)aminocarbonyl]cyclobutane-3-[N-(5-tetrazolyl)]carboxamide-4-carboxylic acid] yielded an inhibition at 1 µM of 80%.
`CCCN(Cc1ccc(Oc2ccccc2)cc1)C(=O)C1C(C(=O)O)C(C(=O)N2CCCC2C(=O)O)C1C(=O)N(CCC)Cc1ccc(Oc2ccccc2)cc1` (stereo not drawn) [Example 107, (1α,2β,3β,4α)-1,2-Di[N-propyl-N-(4-phenoxybenzyl)aminocarbonyl]cyclobutane-3,4-dicarboxylic acid mono-d,l-Proline amide] gave an inhibition at 1 µM of 75%.
With `CCCN(Cc1ccc(Oc2ccccc2)cc1)C(=O)C1C(C(=O)O)C(C(=O)N(C)CC(=O)O)C1C(=O)N(CCC)Cc1ccc(Oc2ccccc2)cc1` (stereo not drawn) [Example 108, (1α,2β,3β,4α)-1,2-Di[N-propyl-N-(4-phenoxybenzyl)aminocarbonyl]cyclobutane-3,4-dicarboxylic acid mono-Sarcosine amide] the inhibition at 1 µM was 59%.
`CCCN(Cc1ccc(Oc2ccccc2)cc1)C(=O)C1C(C(=O)O)C(C(=O)NC(CC(=O)O)C(=O)O)C1C(=O)N(CCC)Cc1ccc(Oc2ccccc2)cc1` (stereo not drawn) [Example 109, (1α,2β,3β,4α)-1,2-Di[N-propyl-N-(4-phenoxybenzyl)aminocarbonyl]cyclobutane-3,4-dicarboxylic acid mono-d,l-Aspartic acid amide] showed an inhibition at 1 µM of 78%.
Molecule `CCCN(Cc1ccc(Oc2ccccc2)cc1)C(=O)C1C(C(=O)O)C(C(=O)NCCC(=O)O)C1C(=O)N(CCC)Cc1ccc(Oc2ccccc2)cc1` (stereo not drawn) [Example 111, (1α,2β,3β,4α)-1,2-Di[N-propyl-N-(4-phenoxybenzyl)aminocarbonyl]cyclobutane-3,4-dicarboxylic acid mono-β-Alanine amide] has an inhibition at 1 µM of 49%.
`CCCN(Cc1ccc(Oc2ccccc2)cc1)C(=O)CC1C(CC(=O)N(CCC)Cc2ccc(Oc3ccccc3)cc2)C(C(=O)O)C1C(=O)O` (stereo not drawn) [Example 127C, (1α,2β,3β,4α)-1,2-Di-[N-propyl-N-(4-phenoxybenzyl)aminocarbonylmethyl]-cyclobutane-3,4-dicarboxylic acid] showed an inhibition at 1 µM of 68%.
In the case of `O=C(O)CC1C(CC(=O)O)C(C(=O)N(Cc2ccccc2)Cc2ccc(Oc3ccccc3)cc2)C1C(=O)N(Cc1ccccc1)Cc1ccc(Oc2ccccc2)cc1` (stereo not drawn) [Example 128F, (1α,2β,3β,4α)-1,2-Di{N-benzyl-N-[(4-phenoxy)benzyl]aminocarbonyl)cyclobutane-3,4-diacetic acid], the inhibition at 1 µM was 80%.
Molecule `CCCN(Cc1ccc(Oc2ccccc2)cc1)C(=S)C1C(C(=O)O)C(C(=O)O)C1C(=S)N(CCC)Cc1ccc(Oc2ccccc2)cc1` (stereo not drawn) [Example 130B, (1α,2β,3β,4α)-1,2-Di[N-propyl-N-(4-phenoxybenzyl)aminothiocarbonyl]cyclobutane-3,4-dicarboxylic acid] has an inhibition at 1 µM of 48%.
In the case of “(1α,2β,3β,4α)-1,2-Di[N-propyl-N-(4-(3,4-methylenedioxyphenoxy)benzyl)aminocarbonyl]cyclobutane-3,4-carboxylic acid [Example 119C]”, the “% Inhibition at 1 µM” value was 45* %.
With “(1α,2β,3β,4α)-1,2-Di[N-propyl-N-(4-phenoxybenzyl)aminocarbonyl]cyclobutane-3,4-dicarboxylic acid mono-d-Norleucine amide [Example 112]” the “% Inhibition at 1 µM” value was 21* %.
“(1α,2β,3β,4α)-1,2-Di[N-propyl-N-(4-phenoxybenzyl)aminocarbonyl]cyclobutane-3,4-dicarboxylic acid mono-l-Norleucine amide [Example 113]” was tested, and the “% Inhibition at 1 µM” value was 31* %.

Same assay, conditions: values marked * in Table 1: 1 µM test compound; rat liver microsomes, labelled farnesyl pyrophosphate, 10 minutes at 37 °C; 1 µM
With “(1α,2β,3β,4α)-1,2-Di[N-propyl-N-(4-phenoxybenzyl)aminocarbonyl]cyclobutane-3-phenoxycarbonyl-4-carboxylic acid [Example 105A]” the “% Inhibition at 1 µM” value was 48* %.
In the case of “(1α,2β,3β,4α)-1,2-Di[N-propyl-N-(4-phenoxybenzyl)aminocarbonyl]cyclobutane-3-phenoxycarbonyl-4-carboxylic acid [Example 105B]”, the “% Inhibition at 1 µM” value was 57* %.
